Holding throughout (assay type): in vivo
The subject of assay [1] is Larvae of Mosquito (Culex pipiens). As to the kind of experiment: Insecticidal activity on larvae of mosquito (Experimental Example 2). As to conditions: 24 h, read-out: LC50 (50% lethal concentration). On the procedure:
An emulsifiable concentrate was prepared by blending each of the compounds (1) to (300) of the present invention, xylol and Sorpol SM-200 (trade name; manufactured by Toho Chemical Co., Ltd.) in a proportion of 25%, 50% and 25% (by weight), respectively. 20 to 25 day-old rice plants after seeding were grown in pots and sprayed with each 300-fold dilute solution of the emulsifiable concentrates thus prepared and a 300-fold dilute solution of carbaryl 30% wettable powder diluted with water as a control commercial agent in an amount of 10 ml/pot in each case and then the pots were covered by a cylindrical metal net. 15 small brown planthoppers (Delphacodes striatella Fallen) per group were released in each of the pots treated with carbaryl wettable powder, and compound (1) to (21) and (102) to (110), while 15 green rice leafhopper (Nephotettix bipuntatus cincticeps Uhler) per group were released in each of the pots treated with the carbaryl wettable powder and compounds (22) to (101) and (111) to (300).
Of the emulsifiable concentrates prepared in Experimental Example 1, each of those prepared from the compounds of Table 1 below was diluted with water to each of test concentrations and a 200 ml portion thereof was added to a 300 ml volume beaker. 30 larvae of mosquito per group were released in each of the beaker and allowed to stand for 1 day. Survival was observed and a LC50 (50% lethal concentration) was determined by calculating a percent killing in each case. As a control, lindane emulsifiable concentrate was used.

A further assay deals with oriental house flies. The experiment in a line: Potentiation of insecticidal activity by addition of piperonyl butoxide, topical application (Experimental Example 6). The settings on record: piperonyl butoxide 5 times active ingredient; acetone solution on thoracic dorsal plate. The protocol:
To each of the compounds (22), (51), (62), (63), (82), (86), (125), (150), (160), (176), (177), (178), (184), (185), (191), (195), (200), (201), (204), (208), (210), (212) and (226) was added piperonyl butoxide in an amount of 5 times that of the active ingredient, respectively to prepare an acetone solution having a given concentration. Each of the thus prepared acetone solutions was applied onto a thoracic dosal plate of oriental house flies using a microshringe to observe a synergestic effect on insecticidal activity by piperonyl butoxide.

In assay [2] the test system is adult mosquitoes (Culex pipiens). As to the kind of experiment: Knock-down of adult mosquitoes by 0.2% oil preparation (Experimental Example 4). As to conditions: 0.2% oil preparation, 0.7 ml, 1.5 Kg/cm^2, (70 Cm)^3 glass box, read-out: mosquitoes knocked down. The protocol: 0.2% oil preparation was prepared from each of the compounds (1), (2), (8), (14), (22), (25), (26), (27), (51), (62), (73), (82), (86), (88), to (90), (92), (94), (96), (111), (119), (121), (165), (175), (180), (184), (185), (195), (200), (201), and (208) and allethrin as a control using deodorized kerosene.

Structures are written as SMILES. Converted amounts (≈) assume the structure as drawn.

On to `CC(C)C(C(=O)OCc1coc(Cc2ccccc2)c1)c1cccc(Cl)c1` (stereo not drawn) [compound 204], for which the LC50 in assay [1] came out at 7.5 ng/mL (≈ 0.0196 µM). Besides, the “Potentiation magnification of insecticidal activity by the addition of piperonyl butoxide” value (“Potentiation magnification” below) in the assay with oriental house flies amounted to 4.7. Take `CCC(C(=O)OCc1cccc(Oc2ccccc2)c1)c1ccc(Br)cc1` (stereo not drawn) [compound 178]: the “Potentiation magnification” value in the assay with oriental house flies was found to be 5.4. Regarding `CC(C)C(C(=O)OCc1cccc(Oc2ccccc2)c1)c1ccc(F)cc1` (stereo not drawn) [compound 210], the LC50 in assay [1] is 3.5 ng/mL (≈ 0.00925 µM). Also, the “Potentiation magnification” value in the assay with oriental house flies is given as 4.8.

`CCC(C(=O)OC1C=C(Cc2ccccc2)C(=O)C1)c1ccc(F)cc1` (stereo not drawn) [compound 191]: in the assay with oriental house flies, the “Potentiation magnification” value turned out to be 4.3. With `CCC(C(=O)OCc1cccc(Oc2ccccc2)c1)c1ccc(OC(C)=O)cc1` (stereo not drawn) [compound 25, 3'-Phenoxybenzyl-α-ethyl-4-acetoxyphenylacetate], the pest or weed control at 0.2 % in assay [2] was above 80%. With `CCC(C(=O)OC(C#N)c1cccc(Oc2ccccc2)c1)c1ccccc1` (stereo not drawn) [compound 14, 3'-Phenoxy-α'-cyanobenzyl-α-ethylphenylacetate], the pest or weed control at 0.2 % in assay [2] was above 80%. Further, in assay [1], the LC50 amounted to 2.6 ng/mL (≈ 0.007 µM). As for `C=C(C)C(C(=O)OCN1C(=O)C2=C(CCCC2)C1=O)c1ccc(OC)cc1` (stereo not drawn) [compound 90, 3',4',5',6'-Tetrahydrophthalimidomethyl-α-isopropenyl-4-methoxyphenylacetate], the pest or weed control at 0.2 % in assay [2] was above 80%. On to `C=C(C)C(C(=O)OCc1cccc(Cc2ccccc2)c1)c1ccc(OC)cc1` (stereo not drawn) [compound 92, 3'-Benzylbenzyl-α-isopropenyl-4-methoxyphenylacetate], for which the pest or weed control at 0.2 % in assay [2] is above 80%. Turning to `CC(C)C(C(=O)OCc1coc(Cc2ccccc2)c1)c1ccc(Br)cc1` (stereo not drawn) [compound 212], the LC50 in assay [1] was found to be 3.7 ng/mL (≈ 0.00866 µM). The “Potentiation magnification” value in the assay with oriental house flies turned out to be 5.0. As for `C#CCc1ccc(C(C#C)OC(=O)C(CC)c2ccc(OC)cc2)o1` (stereo not drawn) [compound 94, 5'-Propargyl-α'-ethynylfurfuryl-α-ethyl-4-methoxyphenylacetate], the pest or weed control at 0.2 % in assay [2] is above 80%.

For `C#CCc1ccc(C(C#C)OC(=O)C(c2ccc(C)cc2)C(C)C)o1` (stereo not drawn) [compound 160], the “Potentiation magnification” value with oriental house flies was determined as 7.2.

For `CCC(C(=O)OCc1cccc(Oc2ccccc2)c1)c1ccc(Cl)cc1` (stereo not drawn) [compound 177], the LC50 in assay [1] was found to be 7.4 ng/mL (≈ 0.0194 µM). Besides, the “Potentiation magnification” value in the assay with oriental house flies worked out at 5.8. The matching figures for `Cc1ccc(C(C(=O)OCc2ccc(Cc3ccccc3)cc2)C(C)C)cc1` (stereo not drawn) [compound 226]: 13.5 ng/mL (≈ 0.0362 µM) and 4.5. As to `CCC(C(=O)OCN1C(=O)C2=C(CCCC2)C1=O)c1c(C)cc(C)cc1C` (stereo not drawn) [compound 27, 3',4',5',6'-Tetrahydrophthalimidomethyl-2-ethyl-2,4,6-trimethylphenylacetate], the pest or weed control at 0.2 % in assay [2] was above 80%. Consider `CCC(C(=O)OCc1coc(Cc2ccccc2)c1)c1ccc([S+](C)[O-])cc1` (stereo not drawn) [compound 26, 5'-Benzyl-3'-furylmethyl-α-ethyl-4-methylsulfoxyphenylacetate], for which, in assay [2], the pest or weed control at 0.2 % is above 80%. `COc1ccc(C(C(=O)OCc2ccc(Cc3ccccc3)s2)C(C)C)cc1` (stereo not drawn) [compound 86, 5'-Benzyl-2'-thenylmethyl-α-isopropyl-4-methoxyphenylacetate]: the pest or weed control at 0.2 % in assay [2] is above 80%. For the same compound, the “Potentiation magnification” value with oriental house flies is 4.5.

With `COc1ccc(C(C(=O)OCN2C(=O)C3=C(CCCC3)C2=O)C(C)C)cc1` (stereo not drawn) [compound 73, 3',4',5',6'-Tetrahydrophthalimidomethyl-α-isopropyl-p-methoxyphenylacetate], the pest or weed control at 0.2 % in assay [2] was above 80%.
